Key:
[1] = test system: Resistant strains: Candida albicans C79, C6, C8, C31, C54, C70, C104, C138, C140; Candida stellatoidea C45; assay: Microtiter minimum inhibitory concentration (MIC) test, resistant strains; format: cell-based; settings: geometric mean of MICs against resistant strains; YNB pH 5.4, 37° C., 48 hours
Method: (§1) In vitro anti-fungal activity was determined in microtiter minimum inhibitory concentration (MIC) tests using Yeast Nitrogen Broth (YNB without amino acids, Difco., Detroit, Mich.) at pH 5.4. Yeasts were grown overnight in Sabouraud Dextrose Broth at 28° C. with shaking, and concentrations adjusted in sterile saline using a spectrophoptometer at 540 mμ. Compounds were dissolved in various vehicles and diluted in media to twice the final concentrations. The Cetus Pro/Pette system was used to serially dilute 50 μl in round bottom 96 well plates (Falcon, Lincoln Park, N.J.). The turbidometrically adjusted yeast suspensions were diluted 1:3,000 in YNB. These dilutions when added to the wells, produced a final inoculum of 3×10^3 /ml. Plates were incubated at 37° C. for 48 hours. MICs were defined as the lowest concentrations of compound that prevented visible growth. MICs were taken against the following organisms and expressed in the table above as the geometric mean.

[2] = test system: Sensitive strains: Candida albicans C141, Candida sp. C2, Candida sp. C109, Candida parapsilosis C67, Candida tropicalis C112, Torulopsis glabrata C95, Candida …; assay: Microtiter minimum inhibitory concentration (MIC) test, sensitive strains; format: cell-based, Candida spp., Sacchararomyces; settings: geometric mean of MICs against sensitive strains; YNB pH 5.4, 37° C., 48 hours
Method: as §1
Candida pseudotropicalis C 967
Candida guillermondii C137
Sacchararomyces mutant C147

6'-Dodecylamido-5-N-L-Valinyl-UPOC [Compound 3]
MIC-R [1]: 17 µg/mL
MIC-S [2]: 26 µg/mL

Reference: patent US5236900A, “Anti-fungal agents” (Schering Corporation, priority 1991, dated 1993)
